Reference: paper PMC7403980, “Anti-Inflammatory Effects of the Novel PIM Kinase Inhibitor KMU-470 in RAW 264.7 Cells through the TLR4-NF-κB-NLRP3 Pathway” (International Journal of Molecular Sciences, 2020)

Experiments:
Assay type in all cases: cell-based, murine
p38 = test: LPS-induced phosphorylation of p38 in RAW 264.7 cells (Western blot); conditions: KMU-470 1 μM 24 h pre-treatment, LPS 50 ng/mL
Protocol: Figure 5 Effect of KMU-470 on LPS-induced phosphorylation of MAPKs/ IKKs/ NF-κB in RAW 264.7 cells. (A) Cells were pre-treated with 1μM of KMU-470 for 24 h and stimulated with LPS (50 ng/mL) at the indicated times. (C) Cells were pre-treated with 0.5 and 1μM of KMU-470 for 30 min prior to LPS treatment. Total proteins were isolated after 6 h exposure to LPS (50 ng/mL). The protein expression level of MAPKs, p-IKKα/β, and p-NF-κB were assessed using Western blot analyses. (B,D) The relative optical densities of MAPKs, p-IKKα/β, and p-NF-κB bands were analyzed by the Image-J program. *** p < 0.001.
RAW 264.7 cells were pre-treated with KMU-470 (0.5–1 μM/mL) for 24 h and stimulated with LPS (50 ng/mL) for 6 h. After stimulation, total cells were harvested, washed with PBS buffer, and then the total protein was extracted with a RIPA buffer (0.1 mM sodium orthovanadate, 137 mM NaCl, 15 mM EGTA, 0.1% Triton X-100, 25 mM MOPS, 15 mM MgCl2, 100 μM phenylmethylsulfonyl fluoride, and 20 μM leupeptin, adjusted to pH 7.2). […] Immunoreactive proteins were detected using the ELC Western blot detection system kit (Millipore). Signal intensity was measured using the Chemi Image documentation system (Fusion Fx7, VILBER LOUTMAT). Protein expression levels were quantified using the Image J program.

pro-IL-1β = test: LPS-induced pro-IL-1β protein expression in RAW 264.7 cells (Western blot); conditions: KMU-470 0.1, 0.5, 1 μM 30 min, LPS 50 ng/mL 6 h
Protocol: Figure 2 Effect of PIM inhibition on lipopolysaccharide (LPS)-mediated inflammatory response in RAW 264.7 cells. (A) RAW 264.7 cells transfected with negative siRNA or PIM-1 siRNA for 72 h and then treated with LPS (50 ng/mL) for 6 h. Whole cell lysates were isolated and used to measure the protein expression levels of PIM-1, pro-IL-1β, p-Bad, and β-actin by Western blot analysis. […] Total RNA was isolated, and used to measure the mRNA expression levels of IL-1b and β-actin by RT-PCR analysis. *** p < 0.001, ** p < 0.01.
Figure 6 Inhibitory effect of KMU-470 on LPS-induced up-regulation of pro-inflammatory cytokines and activation of NLRP3 inflammasome in RAW 264.7 cells. (A–C) Cells were treated with KMU-470 for 30 min and stimulated with LPS 50 ng/mL for 6 h. The levels of IL-1β, TNF-α, and IL-6 were determined using real time PCR. *** p < 0.001, *p < 0.05. (D) Cells were pre-treated with 0.1, 0.5, and 1 μM of KMU-470 for 30 min and treated with LPS 50 ng/mL for 6 h, respectively. […]
RAW 264.7 cells were pre-treated with KMU-470 (0.5–1 μM/mL) for 24 h and stimulated with LPS (50 ng/mL) for 6 h. […] Immunoreactive proteins were detected using the ELC Western blot detection system kit (Millipore). Signal intensity was measured using the Chemi Image documentation system (Fusion Fx7, VILBER LOUTMAT). Protein expression levels were quantified using the Image J program. […]

IL-6 = test: LPS-induced IL-6 mRNA in RAW 264.7 cells (real time PCR); conditions: KMU-470 30 min, LPS 50 ng/mL 6 h
Protocol: Figure 6 Inhibitory effect of KMU-470 on LPS-induced up-regulation of pro-inflammatory cytokines and activation of NLRP3 inflammasome in RAW 264.7 cells. (A–C) Cells were treated with KMU-470 for 30 min and stimulated with LPS 50 ng/mL for 6 h. The levels of IL-1β, TNF-α, and IL-6 were determined using real time PCR. *** p < 0.001, *p < 0.05. (D) Cells were pre-treated with 0.1, 0.5, and 1 μM of KMU-470 for 30 min and treated with LPS 50 ng/mL for 6 h, respectively. Whole cell lysates were isolated and used to measure the protein expression levels of pro-IL-1β and β-actin by Western blot analysis. (E) Cells were pre-treated with 0.1, 0.5, and 1 μM of KMU-470 for 30 min and treated with LPS 50 ng/mL for 6 h, respectively. Whole cell lysates were isolated and used to measure the protein expression levels of […], ASC, pro-caspase-1, pro-IL-1β, and β-actin by Western blot analysis.
Total RNA was isolated using TriZol reagent (Life Technologies; Gaithersburg, MD, USA) according to the manufacturer’s protocol. Total RNA absorbance was quantified by using Nanodrop 1000 (Thermo Fisher Scientific, Waltham, MA, USA). […] Real time quantitative PCR was performed by using the SYBR green premix (Roche Diagnostics, Mannheim, Germany) on the LightCycler 480 PCR (system Roche Diagnostics, Mannheim, Germany). […]

Q: Which results are given for `CN(C)CCNc1cncc(-c2ccc3c(c2)/C(=C/c2cnc[nH]2)C(=O)N3)n1` [KMU-470, (Z)-3-((1H-Imidazol-5-yl)methylene)-5-(6-((2-(dimethylamino)ethyl)amino)pyrazin-2-yl)indolin-2-one]?
A: p38 phosphorylation level (p38): no change; LPS-induced up-regulation of IL-1β protein (pro-IL-1β; RAW 264.7 cells (Figure 6D)): reduced; Expression of pro-IL-1β protein compared with LPS alone group (pro-IL-1β; RAW 264.7 cells (Figure 6E)): marked decrease; LPS-induced up-regulation of IL-6 (mRNA) (IL-6): significantly decreased
